Measured values taken from US6355799B1, “Substituted benzene compounds, process for their preparation, and herbicidal and defoliant compositions containing them” (ISK Americas Incorporated, priority 1997, dated 2002).

Key:
Assay type in all cases: in vivo
[1] = test system: redroot pigweed (Amaranthus retroflexus, AMARE); assay: Pre-emerge test, greenhouse herbicide activity screening
Procedure, shortened: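 Rating: 0–100 visual injury, 14 DAA. Application: acetone, 187 l/ha, 15–1000 g ai/ha, flat-fan track sprayer with nozzle 40–45 cm above soil or canopy. Post-emerge runs used 0.25% v/v surfactant on 2–3 leaf plants.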

[2] = test system: large crabgrass (Digitaria sanguinalis, DIGSA); assay: as above
Procedure, shortened: (§1)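 Herbicidal damage is scored 0 (none) to 100 (complete plant death) two weeks after a simulated field spray. Rates span 15–1000 g ai/ha, delivered in acetone at 187 l/ha. For post-emergence treatments, plants have 2–3 leaves and the spray carries 0.25% v/v non-ionic surfactant.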

[3] = test system: ivyleaf morningglory (Ipomoea hederacea, IPOHE); assay: as above
Procedure, shortened: as §1

[4] = test system: johnsongrass (Sorghum halepense, SORHA); assay: as above
Procedure, shortened: as §1

[5] = test system: sicklepod (Cassia obtusifolia, CASOB); assay: as above
Procedure, shortened: as §1

[6] = test system: green foxtail (Setaria viridis, SETVI); assay: as above
Procedure, shortened: as §1

[7] = test system: barnyardgrass (Echinochloa crus-galli, ECHCG); assay: as above
Procedure, shortened: as §1

[8] = test system: lambsquarters (Chenopodium album, CHEAL); assay: as above
Procedure, shortened: as §1

[9] = test system: velvetleaf (Abutilon theophrasti, ABUTH); assay: as above
Procedure, shortened: as §1

[10] = test system: redroot pigweed (Amaranthus retroflexus, AMARE); assay: Post-emerge test, greenhouse herbicide activity screening; conditions: post-emerge; for phytotoxicity rating AMARE: 14 days after application; for Post-emerge Herbicidal Activity AMARE: phytotoxicity rating 0-100 at 14 days after application
Procedure, shortened: (§2)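 Compounds in acetone were track-sprayed at 15–1000 g ai/ha: pre-emergence onto soil sown the previous day, then top-watered to incorporate and later bottom-watered; post-emergence onto 2–3 leaf plants with 0.25% v/v surfactant, bottom-watered only. Ratings on a 0–100 phytotoxicity scale were taken at day 14.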

[11] = test system: large crabgrass (Digitaria sanguinalis, DIGSA); assay: as above; conditions: post-emerge; for phytotoxicity rating DIGSA: 14 days after application, rating scale 0-100; for Post-emerge Herbicidal Activity DIGSA: phytotoxicity rating 0-100 at 14 days after application
Procedure, shortened: as §2

[12] = test system: ivyleaf morningglory (Ipomoea hederacea, IPOHE); assay: as above; conditions: post-emerge; for phytotoxicity rating IPOHE: 14 days after application, rating scale 0-100; for Post-emerge Herbicidal Activity IPOHE: phytotoxicity rating 0-100 at 14 days after application
Procedure, shortened: as §2

[13] = test system: sicklepod (Cassia obtusifolia, CASOB); assay: as above; conditions: post-emerge; for phytotoxicity rating CASOB: 14 days after application, rating scale 0-100; for Post-emerge Herbicidal Activity CASOB: phytotoxicity rating 0-100 at 14 days after application
Procedure, shortened: as §2

[14] = test system: green foxtail (Setaria viridis, SETVI); assay: as above; conditions: post-emerge; for phytotoxicity rating SETVI: 14 days after application, rating scale 0-100; for Post-emerge Herbicidal Activity SETVI: phytotoxicity rating 0-100 at 14 days after application
Procedure, shortened: as §2

[15] = test system: barnyardgrass (Echinochloa crus-galli, ECHCG); assay: as above; conditions: post-emerge; for phytotoxicity rating ECHCG: 14 days after application, rating scale 0-100; for Post-emerge Herbicidal Activity ECHCG: phytotoxicity rating 0-100 at 14 days after application
Procedure, shortened: as §2

[16] = test system: lambsquarters (Chenopodium album, CHEAL); assay: as above; conditions: post-emerge; for phytotoxicity rating CHEAL: 14 days after application, rating scale 0-100; for Post-emerge Herbicidal Activity CHEAL: phytotoxicity rating 0-100 at 14 days after application
Procedure, shortened: as §2

[17] = test system: velvetleaf (Abutilon theophrasti, ABUTH); assay: as above; conditions: post-emerge; for phytotoxicity rating ABUTH: 14 days after application, rating scale 0-100; for Post-emerge Herbicidal Activity ABUTH: phytotoxicity rating 0-100 at 14 days after application
Procedure, shortened: as §2

[18] = test system: field corn (Zea mays L., var. Dekalb 535, CORN); assay: Pre-emerge test, crop safety
Procedure, shortened: (§3)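 Applied at 15–1000 g ai/ha from acetone in 187 l/ha spray volume. Post-emergence applications included 0.25% v/v non-ionic surfactant and reached plants sown 8–21 days before. Pre-emergence applications were incorporated by surface watering. Efficacy or crop damage was rated on a 0–100 scale after 14 days.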

[19] = test system: upland rice (Oryza sp., var. Tebonnet, RICE); assay: Pre-emerge test, crop safety
Procedure, shortened: as §3

[20] = test system: field corn (Zea mays L., var. Dekalb 535, CORN); assay: Post-emerge test, crop safety; conditions: post-emerge; for phytotoxicity rating CORN (crop damage): 14 days after application, rating scale 0-100; for Post-emerge Herbicidal Activity CORN: crop damage rating 0-100 at 14 days after application
Procedure, shortened: as §1

[21] = test system: upland rice (Oryza sp., var. Tebonnet, RICE); assay: Post-emerge test, crop safety; conditions: post-emerge; for phytotoxicity rating RICE (crop damage): 14 days after application, rating scale 0-100; for Post-emerge Herbicidal Activity RICE: crop damage rating 0-100 at 14 days after application
Procedure, shortened: as §1

[22] = 63 g ai/ha, phytotoxicity rating 0-100, 14 days after application
[23] = 250 g ai/ha, phytotoxicity rating 0-100, 14 days after application
[24] = 63 g ai/ha, crop damage rating 0-100, 14 days after application
[25] = 250 g ai/ha, crop damage rating 0-100, 14 days after application
[26] = pre-emerge, rate 63 g ai/ha, phytotoxicity rating 0-100 at 14 days after application
[27] = pre-emerge, rate 250 g ai/ha, phytotoxicity rating 0-100 at 14 days after application
[28] = crop damage, pre-emerge, rate 63 g ai/ha, phytotoxicity rating 0-100 at 14 days after application
[29] = crop damage, pre-emerge, rate 250 g ai/ha, phytotoxicity rating 0-100 at 14 days after application

## COc1c(Cl)cc(F)c(-n2c(=O)cc(C(F)(F)F)n(C)c2=O)c1NC(=O)OCc1c(F)c(F)c(F)c(F)c1F [4-48]
[1]; [22]
  Pre-emerge Herbicidal Activity AMARE: 100
[1]; [23]
  Pre-emerge Herbicidal Activity AMARE: 100
[2]; [22]
  Pre-emerge Herbicidal Activity DIGSA: 100
[2]; [23]
  Pre-emerge Herbicidal Activity DIGSA: 100
[3]; [22]
  Pre-emerge Herbicidal Activity IPOHE: 80
[3]; [23]
  Pre-emerge Herbicidal Activity IPOHE: 100
[4]; [22]
  Pre-emerge Herbicidal Activity SORHA: 60
[4]; [23]
  Pre-emerge Herbicidal Activity SORHA: 90
[5]; [22]
  Pre-emerge Herbicidal Activity CASOB: 40
[5]; [23]
  Pre-emerge Herbicidal Activity CASOB: 100
[6]; [22]
  Pre-emerge Herbicidal Activity SETVI: 100
[6]; [23]
  Pre-emerge Herbicidal Activity SETVI: 100
[7]; [22]
  Pre-emerge Herbicidal Activity ECHCG: 50
[7]; [23]
  Pre-emerge Herbicidal Activity ECHCG: 70
[8]; [22]
  Pre-emerge Herbicidal Activity CHEAL: 100
[8]; [23]
  Pre-emerge Herbicidal Activity CHEAL: 100
[9]; [22]
  Pre-emerge Herbicidal Activity ABUTH: 100
[9]; [23]
  Pre-emerge Herbicidal Activity ABUTH: 100
[10]; 63 g ai/ha, rating scale 0-100 (0 no damage, 100 complete death)
  phytotoxicity rating AMARE: 100
[10]; 250 g ai/ha, rating scale 0-100
  phytotoxicity rating AMARE: 100
[11]; 63 g ai/ha
  phytotoxicity rating DIGSA: 20
[11]; 250 g ai/ha
  phytotoxicity rating DIGSA: 40
[12]; 63 g ai/ha
  phytotoxicity rating IPOHE: 100
[12]; 250 g ai/ha
  phytotoxicity rating IPOHE: 100
[13]; 63 g ai/ha
  phytotoxicity rating CASOB: 95
[13]; 250 g ai/ha
  phytotoxicity rating CASOB: 100
[14]; 63 g ai/ha
  phytotoxicity rating SETVI: 30
[14]; 250 g ai/ha
  phytotoxicity rating SETVI: 40
[15]; 63 g ai/ha
  phytotoxicity rating ECHCG: 20
[15]; 250 g ai/ha
  phytotoxicity rating ECHCG: 80
[16]; 63 g ai/ha
  phytotoxicity rating CHEAL: 100
[16]; 250 g ai/ha
  phytotoxicity rating CHEAL: 100
[17]; 63 g ai/ha
  phytotoxicity rating ABUTH: 100
[17]; 250 g ai/ha
  phytotoxicity rating ABUTH: 100
[18]; [24]
  Pre-emerge Herbicidal Activity CORN: 30
[18]; [25]
  Pre-emerge Herbicidal Activity CORN: 50
[19]; [24]
  Pre-emerge Herbicidal Activity RICE: 20
[19]; [25]
  Pre-emerge Herbicidal Activity RICE: 70
[20]; 63 g ai/ha
  phytotoxicity rating CORN (crop damage): 90
[20]; 250 g ai/ha
  phytotoxicity rating CORN (crop damage): 90
[21]; 63 g ai/ha
  phytotoxicity rating RICE (crop damage): 80
[21]; 250 g ai/ha
  phytotoxicity rating RICE (crop damage): 80

## O=C(Nc1cc(Cl)ccc1-n1c(=O)n2n(c1=S)CCCC2)c1ccc2ccccc2c1 [9-14]
[1]; [26]
  Pre-emerge Herbicidal Activity AMARE: 40
[1]; [27]
  Pre-emerge Herbicidal Activity AMARE: 65
[2]; [26]
  Pre-emerge Herbicidal Activity DIGSA: 0
[2]; [27]
  Pre-emerge Herbicidal Activity DIGSA: 30
[3]; [26]
  Pre-emerge Herbicidal Activity IPOHE: 0
[3]; [27]
  Pre-emerge Herbicidal Activity IPOHE: 10
[4]; [26]
  Pre-emerge Herbicidal Activity SORHA: 0
[4]; [27]
  Pre-emerge Herbicidal Activity SORHA: 10
[5]; [26]
  Pre-emerge Herbicidal Activity CASOB: 0
[5]; [27]
  Pre-emerge Herbicidal Activity CASOB: 0
[6]; [26]
  Pre-emerge Herbicidal Activity SETVI: 0
[6]; [27]
  Pre-emerge Herbicidal Activity SETVI: 30
[7]; [26]
  Pre-emerge Herbicidal Activity ECHCG: 0
[7]; [27]
  Pre-emerge Herbicidal Activity ECHCG: 40
[8]; [26]
  Pre-emerge Herbicidal Activity CHEAL: 80
[8]; [27]
  Pre-emerge Herbicidal Activity CHEAL: 100
[9]; [26]
  Pre-emerge Herbicidal Activity ABUTH: 20
[9]; [27]
  Pre-emerge Herbicidal Activity ABUTH: 85
[10]; 63 g ai/ha
  Post-emerge Herbicidal Activity AMARE: 85
[10]; 250 g ai/ha
  Post-emerge Herbicidal Activity AMARE: 100
[11]; 63 g ai/ha
  Post-emerge Herbicidal Activity DIGSA: 0
[11]; 250 g ai/ha
  Post-emerge Herbicidal Activity DIGSA: 10
[12]; 63 g ai/ha
  Post-emerge Herbicidal Activity IPOHE: 80
[12]; 250 g ai/ha
  Post-emerge Herbicidal Activity IPOHE: 90
[13]; 63 g ai/ha
  Post-emerge Herbicidal Activity CASOB: 40
[13]; 250 g ai/ha
  Post-emerge Herbicidal Activity CASOB: 40
[14]; 63 g ai/ha
  Post-emerge Herbicidal Activity SETVI: 10
[14]; 250 g ai/ha
  Post-emerge Herbicidal Activity SETVI: 20
[15]; 63 g ai/ha
  Post-emerge Herbicidal Activity ECHCG: 0
[15]; 250 g ai/ha
  Post-emerge Herbicidal Activity ECHCG: 10
[16]; 63 g ai/ha
  Post-emerge Herbicidal Activity CHEAL: 95
[16]; 250 g ai/ha
  Post-emerge Herbicidal Activity CHEAL: 100
[17]; 63 g ai/ha
  Post-emerge Herbicidal Activity ABUTH: 100
[17]; 250 g ai/ha
  Post-emerge Herbicidal Activity ABUTH: 100
[18]; [28]
  Pre-emerge Herbicidal Activity CORN: 0
[18]; [29]
  Pre-emerge Herbicidal Activity CORN: 0
[19]; [28]
  Pre-emerge Herbicidal Activity RICE: 0
[19]; [29]
  Pre-emerge Herbicidal Activity RICE: 10
[20]; 63 g ai/ha
  Post-emerge Herbicidal Activity CORN: 15
[20]; 250 g ai/ha
  Post-emerge Herbicidal Activity CORN: 50
[21]; 63 g ai/ha
  Post-emerge Herbicidal Activity RICE: 0
[21]; 250 g ai/ha
  Post-emerge Herbicidal Activity RICE: 40
